PubChem BioAssay AID651729 (NMMLSC, 2012)

Test system: AM2.2 cells FAP-GPR32, fluorogen binding, flow cytometry MCF
Test: fluorogen binding to FAP-tagged GPR32, dose response, counter-screen for beta2AR agonist internalization project, AM2.2 cells, flow cytometry, powder set 2 (AID 651729)

SMILES | EC50 [nM]
CN(CC(=O)N1CCN(c2ccccn2)CC1)S(=O)(=O)c1ccc(Cl)cc1 | 5.23
CCOC(=O)c1ccc(NC(=O)Cn2nnc(-c3ccccc3)n2)cc1 | 134
CC(=O)Nc1ccc(S(=O)(=O)NCCc2csc(-c3cccnc3)n2)cc1 | 11
CCOC(=O)c1ccc(NC(=O)COc2ccc(S(=O)(=O)N3CCCC3)cc2)cc1 | 124
